Data reported in ChEMBL document CHEMBL1153038, “Eusynstyelamides A, B, and C, nNOS inhibitors, from the ascidian Eusynstyela latericius” (J Nat Prod, 2009).

What was measured:
HCT-116 = assay: Cytotoxicity against human HCT116 cells; type: functional, cell-based
SF-268 = assay: Cytotoxicity against human SF268 cells upto […] by SRB assay; type: functional, cell-based
Staphylococcus aureus = assay: Antibacterial activity against Staphylococcus aureus after 24 hrs by microtiter dilution assay; type: functional, organism-based
MCF7 = assay: Cytotoxicity against human MCF7 cells upto […] by SRB assay; type: functional, cell-based
Nitric oxide synthase 1 = Nitric oxide synthase 1 (Rattus norvegicus, UniProt P29476); assay: Inhibition of rat cerebella nNOS synthase assessed as [3H]arginine to [3H]citrulline conversion by microbeta scintillation counting
Nitric oxide synthase 1, sequence (P29476 whole entry): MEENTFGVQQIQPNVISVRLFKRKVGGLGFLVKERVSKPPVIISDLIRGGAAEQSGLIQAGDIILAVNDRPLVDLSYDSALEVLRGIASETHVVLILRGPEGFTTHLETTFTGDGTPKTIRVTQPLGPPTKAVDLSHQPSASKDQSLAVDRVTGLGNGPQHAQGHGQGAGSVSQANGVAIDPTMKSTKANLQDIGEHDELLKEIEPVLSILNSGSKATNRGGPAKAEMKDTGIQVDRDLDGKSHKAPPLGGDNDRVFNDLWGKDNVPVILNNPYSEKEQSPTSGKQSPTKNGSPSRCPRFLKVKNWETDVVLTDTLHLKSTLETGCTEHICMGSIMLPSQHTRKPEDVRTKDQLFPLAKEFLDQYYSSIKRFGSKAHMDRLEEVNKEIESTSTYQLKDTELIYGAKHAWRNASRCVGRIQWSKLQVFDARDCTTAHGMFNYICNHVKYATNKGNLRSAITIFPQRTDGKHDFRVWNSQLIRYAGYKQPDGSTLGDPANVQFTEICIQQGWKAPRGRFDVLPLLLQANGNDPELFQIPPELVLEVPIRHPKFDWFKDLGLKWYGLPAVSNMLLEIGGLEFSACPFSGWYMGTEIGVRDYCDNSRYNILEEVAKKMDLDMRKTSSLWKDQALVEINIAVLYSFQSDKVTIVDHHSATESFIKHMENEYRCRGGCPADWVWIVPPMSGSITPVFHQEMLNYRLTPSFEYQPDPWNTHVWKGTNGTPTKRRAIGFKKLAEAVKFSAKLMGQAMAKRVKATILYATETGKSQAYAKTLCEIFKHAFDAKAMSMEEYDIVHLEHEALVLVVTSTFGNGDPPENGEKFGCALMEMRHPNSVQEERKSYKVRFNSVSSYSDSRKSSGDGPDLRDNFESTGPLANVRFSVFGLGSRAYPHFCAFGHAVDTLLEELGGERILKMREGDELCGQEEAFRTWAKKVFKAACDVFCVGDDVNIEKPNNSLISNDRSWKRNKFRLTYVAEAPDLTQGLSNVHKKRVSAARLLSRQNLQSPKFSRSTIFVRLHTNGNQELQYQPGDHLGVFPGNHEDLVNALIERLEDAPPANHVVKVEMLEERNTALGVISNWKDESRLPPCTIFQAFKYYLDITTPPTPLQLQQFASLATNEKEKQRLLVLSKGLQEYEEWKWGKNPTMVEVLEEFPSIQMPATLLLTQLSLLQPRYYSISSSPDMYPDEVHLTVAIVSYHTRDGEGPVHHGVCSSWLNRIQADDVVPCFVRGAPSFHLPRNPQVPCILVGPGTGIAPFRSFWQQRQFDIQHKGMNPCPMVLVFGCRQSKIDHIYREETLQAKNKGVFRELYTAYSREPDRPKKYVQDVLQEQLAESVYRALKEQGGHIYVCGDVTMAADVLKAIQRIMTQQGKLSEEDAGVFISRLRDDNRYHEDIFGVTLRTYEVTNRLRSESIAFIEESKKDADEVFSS

NCI-H460 = assay: Cytotoxicity against human H460 cells upto […] by SRB assay; type: functional, cell-based

Q: How did the IC50 (HCT-116) turn out when `NCCc1cc(O)c2nccc3c2c1Nc1ccccc1-3` [STYELSAMINE D] was run?
A: The IC50 was 1.6 µM.

Q: What does the source list for `N=C(N)NCCCCNC(=O)[C@@]1(O)[C@H](c2c[nH]c3cc(Br)ccc23)[C@@](O)(Cc2c[nH]c3cc(Br)ccc23)C(=O)N1CCCCNC(=N)N`?
A: Activity (SF-268): Not toxic; IC50 (Staphylococcus aureus): 6.5 µM; Activity (MCF7): Not toxic; IC50 (Nitric oxide synthase 1): 4.3 µM; Activity (NCI-H460): Not toxic

Q: Which results are given for `N=C(N)NCCCCNC(=O)[C@]1(O)[C@H](c2c[nH]c3cc(Br)ccc23)[C@@](O)(Cc2c[nH]c3cc(Br)ccc23)C(=O)N1CCCCNC(=N)N`?
A: Activity (SF-268): Not toxic; IC50 (Staphylococcus aureus): 19 µM; Activity (MCF7): Not toxic; IC50 (Nitric oxide synthase 1): 41.7 µM; Activity (NCI-H460): Not toxic

Q: For `N=C(N)NCCCCNC(=O)C(O)(O)C(c1c[nH]c2cc(Br)ccc12)C(O)(Cc1c[nH]c2cc(Br)ccc12)C(=O)NCCCCNC(=N)N` (centres undefined) [EUSYNSTYELAMIDE], which IC50 (HCT-116) is on record?
A: Its IC50 is 100 µM.

Q: `N=C(N)NCCCCNC(=O)[C@@]1(O)[C@H](c2c[nH]c3cc(Br)ccc23)[C@](O)(Cc2c[nH]c3cc(Br)ccc23)C(=O)N1CCCCNC(=N)N` was tested. Which Activity (SF-268) did it give?
A: The Activity was “Not toxic”.

Q: And the Activity (MCF7)?
A: Its Activity is “Not toxic”.

Q: And the IC50 (Nitric oxide synthase 1)?
A: Its IC50 is 5.8 µM.

Q: And the Activity (NCI-H460)?
A: Its Activity is “Not toxic”.

Q: `O=Cc1cc(O)c2nccc3c2c1Nc1ccccc1-3` [STYELSAMINE C] was tested. Which IC50 (HCT-116) did it give?
A: Its IC50 is 1.6 µM.

Q: `NCC(O)c1cc(O)c2nccc3c2c1Nc1ccccc1-3` (centres undefined) [STYELSAMINE A] was tested. Which IC50 (HCT-116) did it give?
A: Its IC50 is 1.6 µM.

Q: For `CC(=O)NCCc1cc(O)c2nccc3c2c1Nc1ccccc1-3` [STYELSAMINE B], which IC50 (HCT-116) is on record?
A: The IC50 was 1.6 µM.
